Reference: publication PMC9038752, “Molecular mechanisms of bifunctional vitamin D receptor agonist-histone deacetylase inhibitor hybrid molecules in triple-negative breast cancer” (Scientific Reports, 2022)

Columns and labels:
[1] = target: T1, purified HDAC6 (Homo sapiens, UniProt Q9UBN7); test: Fluorogenic HDAC inhibition assay, HDAC6; format: biochemical; conditions: purified HDAC6, fluorometric substrate
T1 construct: purchased Cayman Chemical
T1 sequence (Q9UBN7 1-1215): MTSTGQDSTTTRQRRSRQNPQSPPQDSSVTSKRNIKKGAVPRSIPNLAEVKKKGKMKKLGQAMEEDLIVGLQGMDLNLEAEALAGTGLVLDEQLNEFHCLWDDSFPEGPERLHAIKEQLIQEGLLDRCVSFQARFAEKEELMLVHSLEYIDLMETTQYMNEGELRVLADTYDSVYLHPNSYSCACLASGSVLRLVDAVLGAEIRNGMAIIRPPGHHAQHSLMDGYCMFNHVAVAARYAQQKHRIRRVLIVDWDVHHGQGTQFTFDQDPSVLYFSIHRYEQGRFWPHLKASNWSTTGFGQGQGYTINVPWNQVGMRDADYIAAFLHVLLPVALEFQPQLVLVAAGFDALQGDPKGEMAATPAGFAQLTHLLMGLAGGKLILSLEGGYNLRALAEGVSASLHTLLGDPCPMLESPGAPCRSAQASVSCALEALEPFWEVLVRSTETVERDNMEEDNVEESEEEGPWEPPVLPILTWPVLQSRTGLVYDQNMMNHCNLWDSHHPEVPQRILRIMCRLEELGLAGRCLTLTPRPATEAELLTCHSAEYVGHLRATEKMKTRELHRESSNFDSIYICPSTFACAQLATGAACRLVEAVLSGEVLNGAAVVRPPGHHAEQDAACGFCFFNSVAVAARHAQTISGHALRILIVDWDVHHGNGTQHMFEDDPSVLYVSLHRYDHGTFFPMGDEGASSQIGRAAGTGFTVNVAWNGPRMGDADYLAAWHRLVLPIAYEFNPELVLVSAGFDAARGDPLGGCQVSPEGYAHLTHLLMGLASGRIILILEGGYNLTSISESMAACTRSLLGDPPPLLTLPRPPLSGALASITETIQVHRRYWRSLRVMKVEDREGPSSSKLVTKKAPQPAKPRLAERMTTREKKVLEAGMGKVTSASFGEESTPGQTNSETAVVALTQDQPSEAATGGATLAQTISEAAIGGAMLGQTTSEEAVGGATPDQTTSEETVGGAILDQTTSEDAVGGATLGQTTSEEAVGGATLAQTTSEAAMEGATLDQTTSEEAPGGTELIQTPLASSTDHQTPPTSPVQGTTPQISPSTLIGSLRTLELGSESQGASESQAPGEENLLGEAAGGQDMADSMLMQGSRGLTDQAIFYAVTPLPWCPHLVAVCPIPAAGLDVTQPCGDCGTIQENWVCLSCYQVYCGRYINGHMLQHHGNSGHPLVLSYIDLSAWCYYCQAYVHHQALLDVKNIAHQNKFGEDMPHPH
Procedure: (§1) The hybrids were assessed to determine their HDACi and VDR agonist activity as well as their antiproliferative properties relative to DK-406. HDACi activity was assessed in vitro using an acetylated lysine substrate that releases a fluorescent reporter upon HDACi deacetylation and subsequent trypsin digestion. Increasing sidechain length of pyrimidine hybrids enhanced the potency of HDAC6 inhibition, with several compounds inhibiting HDAC6 with a sub-micromolar IC50, similar to that of DK-406 (Fig. 4a). […] Next, we analyzed the effects of compounds on levels of H3K9 and H3K27 acetylation in 4TO7 cells, which are controlled by class I HDACs[29],[30]. […] We also tested the capacity of analogues to induce tubulin acetylation, controlled by class II enzyme HDAC6[32], in 4TO7 cells. Based on their relative efficacy in cytotoxicity assays (see below, Fig. 5c,d), we used 10^–5 M DK-406 and 10^–6 M AM-193 for these studies.
(§2) Figure 4 (a) Results of in vitro assays for inhibition of purified HDAC2 and HDAC6 by DK-406 and heterocyclic hybrids as measured by inhibition of deacetylation of a fluorometric substrate (see Methods for details). (b–d) Left: Western blotting analysis of histone 3 lysine 9 (H3K9; b), H3K27 (c), or acetylated tubulin (d), levels in 4TO7 cells treated with ligands for 6 h. Representative western-blots are shown from at least 3 biological replicates. Right: Graphs representing the average of the replicates, bars are mean ± SD. Each condition was compared to control. *: p ≤ 0.05, **: p ≤ 0.01, ***: p ≤ 0.001, ****: p ≤ 0.0001, ns: not significant. TEXT PRINTED IN THE PICTURE: (a) DK-406: HDAC6 IC50 (μM): 0.6; HDAC2 IC50 (μM): 0.5 | (a) AM-155: HDAC6 IC50 (μM): 2.8; HDAC2 IC50 (μM): 1.7 | (a) AM-171: HDAC6 IC50 (μM): 0.5; HDAC2 IC50 (μM): 9.6 | (a) AM-172: HDAC6 IC50 (μM): 0.3; HDAC2 IC50 (μM): 7.7 | (a) AM-191: HDAC6 IC50 (μM): 1.9; HDAC2 IC50 (μM): 8.1 | (a) AM-192: HDAC6 IC50 (μM): 0.5; HDAC2 IC50 (μM): 6.5 | (a) AM-193: HDAC6 IC50 (μM): 0.3; HDAC2 IC50 (μM): 7.2
(§3) Purified HDAC2 and HDAC6 were purchased from Cayman Chemical. Boc-Lys(Ac)-7-amino-4-methylcoumarin (BocLys(Ac)-AMC) was used as substrate for the HDAC assays. Substrate solution was prepared as follow: Boc(Lys-Ac)-AMC was dissolved in DMSO and diluted with HDAC buffer (15 mM tris–HCl [pH 8.1], 250 μM EDTA, 250 mM NaCl, 10% glycerol) to give 1 mM solutions containing 1.7% DMSO. Trypsin was used to stop the reaction, releasing free AMC. The trypsin solution was prepared as follow: trypsin was dissolved in HDAC buffer to give a concentration of 10 mg/mL. Release of AMC was monitored by measuring the fluorescence at 460 nm (lex = 390 nm) with a microplate reader (SpectraMax Gemini from Molecular Devices) at 37 °C. The AMC signals were recorded against a blank with buffer, substrate and trypsin but without the enzyme. All experiments were carried out at least in triplicate.
(§4) For HDAC inhibition assays, inhibitor diluted in 50 μL of HDAC buffer was mixed with 10 μL of diluted enzyme solution in HDAC buffer at room temperature. The HDAC reaction was started by adding 40 μL of substrate solution in HDAC buffer followed by 60 min of incubation with stirring at 37 °C. The reaction was stopped by adding 100 μL of trypsin solution. After a 30 min incubation with stirring at 37 °C, the release of AMC was monitored by measuring the fluorescence.

[2] = target: T2, purified HDAC2 (Homo sapiens, UniProt Q92769); test: Fluorogenic HDAC inhibition assay, HDAC2; format: biochemical; conditions: purified HDAC2, fluorometric substrate
T2 construct: purchased Cayman Chemical
T2 sequence (Q92769 whole entry): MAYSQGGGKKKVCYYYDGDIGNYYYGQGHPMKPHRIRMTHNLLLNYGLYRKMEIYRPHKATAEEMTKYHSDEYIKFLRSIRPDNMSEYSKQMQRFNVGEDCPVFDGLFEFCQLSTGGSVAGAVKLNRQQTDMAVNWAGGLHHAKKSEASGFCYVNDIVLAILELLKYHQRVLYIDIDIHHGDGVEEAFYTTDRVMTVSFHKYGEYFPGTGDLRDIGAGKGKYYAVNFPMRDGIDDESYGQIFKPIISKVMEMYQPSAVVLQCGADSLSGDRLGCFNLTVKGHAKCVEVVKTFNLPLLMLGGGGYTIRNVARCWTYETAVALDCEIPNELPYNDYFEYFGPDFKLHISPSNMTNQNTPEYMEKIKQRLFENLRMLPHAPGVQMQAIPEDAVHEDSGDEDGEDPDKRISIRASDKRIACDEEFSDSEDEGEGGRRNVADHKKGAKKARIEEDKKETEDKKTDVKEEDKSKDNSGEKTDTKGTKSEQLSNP
Procedure: as §1, §2, §3, §4

IC50 [1] [nM] | IC50 [2] [nM] | Structure (SMILES)
600 | 500 | CCC(CC)(c1ccc(C(=O)NCCCCCC(=O)NO)cc1)c1ccc(OCC(O)C(C)(C)C)c(C)c1 (centres unmarked) [DK-406]
500 | 9600 | CCC(CC)(c1ccc(OCC(O)C(C)(C)C)c(C)c1)c1ccc(OCCCC(=O)NO)cn1 (centres unmarked) [AM-171]
2800 | 1700 | CCC(CC)(c1ccc(OCC(O)C(C)(C)C)c(C)c1)c1ccc(OCC(=O)NO)cn1 (centres unmarked) [AM-155]
300 | 7200 | CCC(CC)(c1ccc(OCCCCCC(=O)NO)cc1)c1ccc(OCC(O)C(C)(C)C)c(C)n1 (centres unmarked) [AM-193]
